Assay results from PMC6018746, “Activation of the p53-MDM4 regulatory axis defines the anti-tumour response to PRMT5 inhibition through its role in regulating cellular splicing” (Scientific Reports, 2018).
Values belong to the molecule of their own block, whether it stands above or below them.

How the values were obtained:
[1] = system: MDM4 alternative splicing in Z-138 cells; experiment: MDM4 splicing RT-PCR; type: cell-based, human; conditions: 3-day exposure, 1.6 nM to 1 μM tested
Protocol: We confirmed PRMT5 inhibitor-induced alternative splicing of MDM4 from the full-length isoform (MDM4-FL) to the short isoform (MDM4-S) at both treatment concentrations, with the most robust changes after 3 days of compound exposure.
RNA was isolated from cell pellets as described above and was converted to cDNA using ABI High Capacity Reverse Transcription Reagents (4274966) per manufacturer’s instructions and PCR was performed as described elsewhere. Reaction products were separated using agarose ethidium bromide gel electrophoresis and visualized using a Bio-Rad VersaDoc Model 5000 imaging system.

[2] = molecular target: panel containing 20 methyltransferases including PRMT9; experiment: methyltransferase selectivity panel; type: biochemical; conditions: other methyltransferases including PRMT9, substrates near KM^app
Protocol: (A) Plots indicating the mode of inhibition against
IC50 values are graphed as a function of substrate concentration relative to Kmapp
(top panel, SAM; bottom panel, H4 1-21 peptide). Data points (closed vs. open
circles) represent two independent experiments. (B) IC50 values plotted as a
represent data generated using 0.8 nM PRMT5/MEP50 while closed circles
represent data with 4 nM PRMT5/MEP50 (top panel).
following a 60 minute Enz:SAM:Inh preincubation fit to a 3-parameter dose-
Enz:SAM:Inh preincubation. IC50 values were determined by fitting inhibition
data to a 3-parameter dose-response equation. Ki*app values were calculated
from IC50 values using the Cheng-Prusoff equation for a competitive inhibitor.

[3] = system: p53 wild-type Z-138 xenograft model; experiment: Z-138 xenograft efficacy; type: in vivo, mouse; conditions: 21 days
[4] = system: p53 mutant MCL xenograft model, REC-1; experiment: REC-1 xenograft efficacy; type: in vivo, mouse; conditions: 100 mg/kg BID
Description: We also observed an increase in the expression of p53 target genes including p21/CDKN1 (Supplementary Figure S7B), confirming induction of p53 activity.

mouse pharmacokinetics = type: in vivo; conditions: data not shown
[5] = system: SDMA in a panel of breast and lymphoma cell lines; experiment: SDMA EC50 in breast and lymphoma cell line panel; type: cell-based; conditions: Homo sapiens; all cell lines of the panel; read-out: SDMA EC50 range
Protocol: SDMA ELISA was performed on homogenized cells and frozen tumour lysates. Fluorescence intensity generated by addition of Luminata Forte (Millipore #WBKUF0500) substrate was measured on a PerkinElmer Envision plate reader.
Cells were seeded in optical bottom cell culture plates and targets were probed with fluorescent secondary antibodies and DAPI stain. Quantification of nuclear SDMA and SMD3 levels was performed with a Molecular Devices […] high-content fluorescence imager and image analysis was performed with ImageExpress software.

SDMA in Z-138 tumors = experiment: SDMA in Z-138 tumour xenograft; type: in vivo, mouse; conditions: 7 days
Protocol: Treatment was re-instated on day 32 for 2 weeks followed by a 1 week holiday. […] QD doses evaluated include 0, 50, 100, and 200 mg/kg. […] Sampling 2 hours post last dose. […] SDMA ELISA was performed on homogenized cells and frozen tumour lysates. Fluorescence intensity generated by addition of Luminata Forte (Millipore #WBKUF0500) substrate was measured on a PerkinElmer Envision plate reader.

SMILES: O=C(NC[C@H](O)CN1CCc2ccccc2C1)c1ccnc(NC2CCC2)c1 [GSK3203591]
concentration at which MDM4 alternative splicing was evident [1]: ≥ 8 nM

IC50 [2]: > 40 µM | elimination half-life (mouse pharmacokinetics): 1.8 h | EC50 [5]: 0.002 to 0.16 µM
SMILES: CC(=O)N1CCC(Nc2cc(C(=O)NC[C@H](O)CN3CCc4ccccc4C3)ncn2)CC1 [GSK3326595]
tumour growth inhibition (TGI) ([3]; 25 mg/kg BID oral): 52.1% | tumour growth inhibition (TGI) ([3]; 50 mg/kg BID oral): 88.03% | tumour growth inhibition (TGI) ([3]; 100 mg/kg BID oral): 106.05% | TGI [4]: 55% | SDMA % vehicle (SDMA in Z-138 tumors; 0.5 mg/kg BID): 71% | SDMA % vehicle (SDMA in Z-138 tumors; 1.4 mg/kg BID): 47% | SDMA % vehicle (SDMA in Z-138 tumors; 4.2 mg/kg BID): 28% | SDMA % vehicle (SDMA in Z-138 tumors; 12.5 mg/kg BID): 9% | SDMA % vehicle (SDMA in Z-138 tumors; 25 mg/kg BID): 5% | SDMA % vehicle (SDMA in Z-138 tumors; 50 mg/kg BID): 8% | SDMA % vehicle (SDMA in Z-138 tumors; 50 mg/kg QD): 16% | SDMA % vehicle (SDMA in Z-138 tumors; 100 mg/kg BID): 2% | SDMA % vehicle (SDMA in Z-138 tumors; 100 mg/kg QD): 12% | SDMA % vehicle (SDMA in Z-138 tumors; 200 mg/kg QD): 9%
